Source: the supplement of paper PMC10307832

Key:
Test in all cases: relative viability (nuclei count vs DMSO), 5 days (fraction); higher = more cells survive
[1] = compound: CC1=CC(=CC=C1)NC2=NC(=CS2)C3=CC=NC=C3 + CC(=O)Nc1cccc(-n2c(=O)n(C3CC3)c(=O)c3c(Nc4ccc(I)cc4F)n(C)c(=O)c(C)c32)c1 [Trametinib] (partner 0.02 µM)
How it was run: (§1)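 Lung cancer cell lines in 1536-well plates were dosed by pin tool the day after seeding, either with one drug alone or with a fixed anchor-drug dose plus five library-drug doses (not always all listed) in √10 steps. After 5 days, cells were fixed and their nuclei stained in one step (final 0.05% Triton X-100, 1% formaldehyde, 1 ug/ml Hoechst), then counted on 4× images. Relative viability is the nuclei count in treated wells divided by that in vehicle wells. Values are medians of duplicate plates.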

[2] = compound: CC1=CC(=CC=C1)NC2=NC(=CS2)C3=CC=NC=C3 + N=C(N)NC(=N)NCCc1ccccc1 [Phenformin] (partner 250 µM)
How it was run: as §1

[3] = compound: CC1=CC(=CC=C1)NC2=NC(=CS2)C3=CC=NC=C3 + Nc1ncn([C@H]2C[C@H](O)[C@@H](CO)O2)c(=O)n1 [Decitabine] (partner 2 µM)
How it was run: as §1

Masitinib + Navitoclax = compound: Cc1ccc(NC(=O)c2ccc(CN3CCN(C)CC3)cc2)cc1Nc1nc(-c2cccnc2)cs1 [Masitinib] + CC1(C)CCC(c2ccc(Cl)cc2)=C(CN2CCN(c3ccc(C(=O)NS(=O)(=O)c4ccc(N[C@H](CCN5CCOCC5)CSc5ccccc5)c(S(=O)(=O)C(F)(F)F)c4)cc3)CC2)C1 [Navitoclax] (partner 0.5 µM)
How it was run: as §1

LCLC-97TM1
relative viability ([1]; first compound 0.08 µM): 0.185 | relative viability ([1]; first compound 0.253 µM): 0.214 | relative viability ([1]; first compound 0.8 µM): 0.157 | relative viability ([1]; first compound 2.53 µM): 0.178 | relative viability ([1]; first compound 8 µM): 0.185 | relative viability ([2]; first compound 0.08 µM): 0.424 | relative viability ([2]; first compound 0.253 µM): 0.414 | relative viability ([2]; first compound 0.8 µM): 0.456 | relative viability ([2]; first compound 2.53 µM): 0.456 | relative viability ([2]; first compound 8 µM): 0.483 | relative viability ([3]; first compound 0.08 µM): 0.204 | relative viability ([3]; first compound 0.253 µM): 0.204 | relative viability ([3]; first compound 0.8 µM): 0.233 | relative viability ([3]; first compound 2.53 µM): 0.254 | relative viability ([3]; first compound 8 µM): 0.245 | relative viability (Masitinib + Navitoclax; first compound 0.01 µM): 0.35 | relative viability (Masitinib + Navitoclax; first compound 0.03162 µM): 0.42 | relative viability (Masitinib + Navitoclax; first compound 0.1 µM): 0.0511 | relative viability (Masitinib + Navitoclax; first compound 0.3162 µM): 0.639 | relative viability (Masitinib + Navitoclax; first compound 1 µM): 0.355

NCI-H838
relative viability ([1]; first compound 0.08 µM): 0.446 | relative viability ([1]; first compound 0.253 µM): 0.458 | relative viability ([1]; first compound 0.8 µM): 0.443 | relative viability ([1]; first compound 2.53 µM): 0.372 | relative viability ([1]; first compound 8 µM): 0.407 | relative viability ([2]; first compound 0.08 µM): 0.466 | relative viability ([2]; first compound 0.253 µM): 0.521 | relative viability ([2]; first compound 0.8 µM): 0.537 | relative viability ([2]; first compound 2.53 µM): 0.508 | relative viability ([2]; first compound 8 µM): 0.51 | relative viability ([3]; first compound 0.08 µM): 0.458 | relative viability ([3]; first compound 0.253 µM): 0.473 | relative viability ([3]; first compound 0.8 µM): 0.501 | relative viability ([3]; first compound 2.53 µM): 0.448 | relative viability ([3]; first compound 8 µM): 0.457 | relative viability (Masitinib + Navitoclax; first compound 0.01 µM): 1.06 | relative viability (Masitinib + Navitoclax; first compound 0.03162 µM): 0.936 | relative viability (Masitinib + Navitoclax; first compound 0.1 µM): 1.14 | relative viability (Masitinib + Navitoclax; first compound 0.3162 µM): 1.01 | relative viability (Masitinib + Navitoclax; first compound 1 µM): 1.11

NCI-H1437
relative viability ([1]; first compound 0.08 µM): 0.439 | relative viability ([1]; first compound 0.253 µM): 0.48 | relative viability ([1]; first compound 0.8 µM): 0.434 | relative viability ([1]; first compound 2.53 µM): 0.274 | relative viability ([1]; first compound 8 µM): 0.313 | relative viability ([2]; first compound 0.08 µM): 0.253 | relative viability ([2]; first compound 0.253 µM): 0.25 | relative viability ([2]; first compound 0.8 µM): 0.309 | relative viability ([2]; first compound 2.53 µM): 0.253 | relative viability ([2]; first compound 8 µM): 0.246 | relative viability ([3]; first compound 0.08 µM): 0.593 | relative viability ([3]; first compound 0.253 µM): 0.521 | relative viability ([3]; first compound 0.8 µM): 0.742 | relative viability ([3]; first compound 2.53 µM): 0.384 | relative viability ([3]; first compound 8 µM): 0.48 | relative viability (Masitinib + Navitoclax; first compound 0.01 µM): 1.07 | relative viability (Masitinib + Navitoclax; first compound 0.03162 µM): 1.01 | relative viability (Masitinib + Navitoclax; first compound 0.1 µM): 1.08 | relative viability (Masitinib + Navitoclax; first compound 0.3162 µM): 1.1 | relative viability (Masitinib + Navitoclax; first compound 1 µM): 1.06

HOP-62
relative viability ([1]; first compound 0.08 µM): 0.371 | relative viability ([1]; first compound 0.253 µM): 0.324 | relative viability ([1]; first compound 0.8 µM): 0.345 | relative viability ([1]; first compound 2.53 µM): 0.328 | relative viability ([1]; first compound 8 µM): 0.266 | relative viability ([2]; first compound 0.08 µM): 0.683 | relative viability ([2]; first compound 0.253 µM): 0.609 | relative viability ([2]; first compound 0.8 µM): 0.804 | relative viability ([2]; first compound 2.53 µM): 0.722 | relative viability ([2]; first compound 8 µM): 0.65 | relative viability ([3]; first compound 0.08 µM): 0.219 | relative viability ([3]; first compound 0.253 µM): 0.218 | relative viability ([3]; first compound 0.8 µM): 0.261 | relative viability ([3]; first compound 2.53 µM): 0.244 | relative viability ([3]; first compound 8 µM): 0.247 | relative viability (Masitinib + Navitoclax; first compound 0.01 µM): 0.93 | relative viability (Masitinib + Navitoclax; first compound 0.03162 µM): 1.02 | relative viability (Masitinib + Navitoclax; first compound 0.1 µM): 0.76 | relative viability (Masitinib + Navitoclax; first compound 0.3162 µM): 1.11 | relative viability (Masitinib + Navitoclax; first compound 1 µM): 1.05

NCI-H2087
relative viability ([1]; first compound 0.08 µM): 0.178 | relative viability ([1]; first compound 0.253 µM): 0.195 | relative viability ([1]; first compound 0.8 µM): 0.246 | relative viability ([1]; first compound 2.53 µM): 0.164 | relative viability ([1]; first compound 8 µM): 0.181 | relative viability ([2]; first compound 0.08 µM): 0.373 | relative viability ([2]; first compound 0.253 µM): 0.421 | relative viability ([2]; first compound 0.8 µM): 0.449 | relative viability ([2]; first compound 2.53 µM): 0.575 | relative viability ([2]; first compound 8 µM): 0.446 | relative viability ([3]; first compound 0.08 µM): 0.264 | relative viability ([3]; first compound 0.253 µM): 0.293 | relative viability ([3]; first compound 0.8 µM): 0.281 | relative viability ([3]; first compound 2.53 µM): 0.263 | relative viability ([3]; first compound 8 µM): 0.238 | relative viability (Masitinib + Navitoclax; first compound 0.01 µM): 0.966 | relative viability (Masitinib + Navitoclax; first compound 0.03162 µM): 1.02 | relative viability (Masitinib + Navitoclax; first compound 0.1 µM): 1.1 | relative viability (Masitinib + Navitoclax; first compound 0.3162 µM): 1.08 | relative viability (Masitinib + Navitoclax; first compound 1 µM): 0.963
